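Growth conditions: 96-well plates. Treatment: test compound, 48 hours, 5 concentrations. Analysis: linear interpolation between bracketing concentrations; unreached endpoints set to highest concentration. The concentration for 50% growth inhibition is given as GI50.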 Calls of active or inactive are those of the source. No stated cut-off is given here; in the data, active = GI50 up to about 1.1 µM and inactive = higher.
Columns and labels:
Assay in all cases: NCI-60 cell line screen, 48 h
SNB-78 = system: SNB-78
DLD-1 = system: DLD-1
HOP-18 = system: HOP-18
LXFL 529 = system: LXFL 529
RXF 631 = system: RXF 631
XF498 = system: XF498
DMS-114 = system: DMS-114
DMS-273 = system: DMS-273
M19-MEL = system: M19-MEL

SMILES | GI50 (SNB-78) | GI50 (DLD-1) | GI50 (HOP-18) | GI50 (LXFL 529) | GI50 (RXF 631) | GI50 (XF498) | GI50 (DMS-114) | GI50 (DMS-273) | GI50 (M19-MEL)
O=C(CC(=O)n1nc(-c2ccccc2)c(/N=N/c2ccc([N+](=O)[O-])cc2)c1-c1ccccc1)Nc1ccc(Cl)cc1 | 88.5 µM (inactive) | 22 µM (inactive) | 26.4 µM (inactive) | 8.73 µM (inactive) | 55.6 µM (inactive) | 26.2 µM (inactive) | 5.92 µM (inactive) | 19.9 µM (inactive) | 35.6 µM (inactive)
COc1cccc2c1C(=O)C=CC2=O | 4.54 µM (inactive) | 7.19 µM (inactive) | 10.4 µM (inactive) | 2.33 µM (inactive) |  | 2.52 µM (inactive) | 4.92 µM (inactive) | 15 µM (inactive) | 4.45 µM (inactive)
COc1ccc2nc(NC(=O)C(=O)CC(=O)c3ccc([N+](=O)[O-])cc3)sc2c1 |  | > 100 µM (inactive) |  | > 100 µM (inactive) | > 100 µM (inactive) | > 100 µM (inactive) | 90.6 µM (inactive) | > 100 µM (inactive) | > 100 µM (inactive)
CC(C)C(=O)/C=C/c1ccc(Cl)c(Cl)c1 | 34.8 µM (inactive) | 14.6 µM (inactive) | 11.4 µM (inactive) | 18.7 µM (inactive) |  | 12.5 µM (inactive) | 19.2 µM (inactive) |  | 17.7 µM (inactive)
C[N+](C)(C)CCc1ccccc1 | > 100 µM (inactive) | > 100 µM (inactive) |  | > 100 µM (inactive) | > 100 µM (inactive) | > 100 µM (inactive) | > 100 µM (inactive) | > 100 µM (inactive) | > 100 µM (inactive)
CN(C)/N=N/c1ccccc1 |  | > 100 µM (inactive) | > 100 µM (inactive) | > 100 µM (inactive) |  | > 100 µM (inactive) | 31.6 µM (inactive) | > 100 µM (inactive) | 43.4 µM (inactive)
COc1cc2c(cc1C)[n+]([O-])c(C)c(C(=O)C/C(=N/NC(=O)C[N+](C)(C)C)C(=O)Nc1cccc(Cl)c1C)[n+]2[O-] | > 100 µM (inactive) | > 100 µM (inactive) | > 100 µM (inactive) | > 100 µM (inactive) | > 100 µM (inactive) | > 100 µM (inactive) | > 100 µM (inactive) | > 100 µM (inactive) | 
Cc1c2cc[n+](C)cc2c(C)c2c1[nH]c1ccc(O)c(OCC(F)(F)F)c12 | 1.16 µM (inactive) | 2.34 µM (inactive) |  | 0.807 µM (active) | 2.78 µM (inactive) | 1.2 µM (inactive) | 0.938 µM (active) | 1.58 µM (inactive) | 2.42 µM (inactive)
NNC(=O)CC(=O)Nc1ccccc1F | > 100 µM (inactive) | > 100 µM (inactive) | > 100 µM (inactive) | > 100 µM (inactive) | > 100 µM (inactive) |  | > 100 µM (inactive) | > 100 µM (inactive) | > 100 µM (inactive)
C(=C\c1c2oc(-c3ccccc3)cc(-c3ccccc3)c-2c2ccccc12)/C=C1\c2ccccc2-c2c(-c3ccccc3)cc(-c3ccccc3)[o+]c21.[O-][Cl+3]([O-])([O-])[O-] | > 100 µM (inactive) | > 100 µM (inactive) |  | > 100 µM (inactive) |  | > 100 µM (inactive) | > 100 µM (inactive) | > 100 µM (inactive) | > 100 µM (inactive)
COc1c(Cl)c(Cl)c(OC)c2c1C(=O)C=CC2=O | 13 µM (inactive) | 14.5 µM (inactive) | 44.5 µM (inactive) | 15.8 µM (inactive) |  | 16.9 µM (inactive) | 16 µM (inactive) | 15.2 µM (inactive) | 18 µM (inactive)
O=C(Cc1ccc(F)cc1)NC1=C(Cl)C(=O)c2ccccc2C1=O | 7.03 µM (inactive) | 2.18 µM (inactive) |  | 2.8 µM (inactive) | 7.36 µM (inactive) | 1.76 µM (inactive) | 0.514 µM (active) | 3.63 µM (inactive) | 3.74 µM (inactive)
O=c1oc2ccccc2[n+]([O-])c1-c1ccccc1 | > 100 µM (inactive) | > 100 µM (inactive) | > 100 µM (inactive) | > 100 µM (inactive) | > 100 µM (inactive) | > 100 µM (inactive) | > 100 µM (inactive) | > 100 µM (inactive) | > 100 µM (inactive)
CC[C@@]1(O)C(=O)OCc2c1cc1n(c2=O)Cc2cc3ccccc3nc2-1 [CAMPTOTHECIN] | 0.333 µM (active) | 0.243 µM (active) | 0.122 µM (active) | 0.372 µM (active) |  | 0.0483 µM (active) | 0.0206 µM (active) | < 0.01 µM (active) | 0.048 µM (active)

Source: ChEMBL document CHEMBL1201862, “PubChem BioAssay data set” (2004)
